Data published in patent US11026944B2, “Compositions and methods for treating insomnia” (Eisai R&D Management Co., Ltd., priority 2014, dated 2021).
Where two headings read alike, the source gives them in different places.

How the values were obtained:
[1] = Crossover study of relative bioavailability of tablet versus capsule (005 Study): plasma PK; assay type: in vivo, human; details: for Tmax / concentration at 8 h / AUC(0-t) / AUC(0-inf) / Cmax / half-life: human, plasma; for concentration at 8 h: plasma at 8 h, read-out: C8 Mean(SD); for AUC(0-inf): read-out: AUC(0-inf) Mean(SD); for Cmax: read-out: Cmax Mean(SD); for half-life: read-out: t1/2 Mean(SD) (converted)
Description: Single-center, open-label, randomized crossover study was conducted to evaluate, in healthy adult subjects, the bioavailability of single solid oral doses of compound A in tablet formulation relative to single oral doses of compound A in capsule formulation at 2.5, 10, and 25 mg. Another objective of the study was to evaluate the safety and tolerability of tablet formulations of compound A at 2.5, 10, and 25 mg in healthy adult subjects. Approximately 36 subjects were randomly assigned to one of three cohorts (approximately 12 subjects per cohort) and received both a single dose of compound A as a capsule formulation and a single dose of compound A as a tablet formulation, in random sequence, in a 1:1 ratio. The doses were 2.5 mg, 10 mg, and 25 mg.
The study had two phases: Prerandomization and Randomization. The Prerandomization Phase lasted for up to 21 days and included a Screening Period and Baseline Period A, during which eligibility was established and baseline assessments before dosing of the first formulation occurred. The Randomization Phase consisted of two Treatment Periods (A and B), separated by Baseline Period B. On the first day of Treatment Period A, subjects received a single oral dose of the first formulation. After the first formulation dose, pharmacokinetic (PK) and safety assessments were obtained throughout Treatment Period A, and subjects completed a 20-day washout. Before dosing of the second formulation, subjects completed Baseline Period B assessments. Subjects then proceeded to Treatment Period B and received a single oral dose of the second formulation. Pharmacokinetic and safety assessments were obtained throughout Treatment Period B.
Blood samples for the determination of plasma concentrations of compound A were collected at the following times: Treatment Period A (Day 1 to Day 15): before and after dosing at 0.5 (30 minutes), 1, 1.5, 2, 3, 4, 5, 6, 8, 12, 24, 48, 72, 120, 168, 240, and 336 hours; Treatment Period B (Day 22 to Day 36): before and after dosing at 0.5 (30 minutes), 1, 1.5, 2, 3, 4, 5, 6, 8, 12, 24, 48, 72, 120, 168, 240, and 336 hours.
Plasma concentrations of compound A were measured using a validated liquid chromatography-tandem mass spectrometry (LC-MS/MS) assay.
Noncompartmental methods were used to calculate the following plasma PK parameters for compound A: area under the plasma concentration-time curve from time zero to 8 hours after dosing (AUC(0-8)), area under the plasma concentration-time curve from time zero to 72 hours after dosing (AUC(0-72)), area under the plasma concentration-time curve from time zero to time of the last quantifiable concentration (AUC(0-t)), area under the plasma concentration-time curve from time zero extrapolated to time infinity (AUC(0-inf)), maximum observed plasma drug concentration (Cmax), terminal elimination half-life (t1/2), absorption lag time (tlag), and time to reach the maximum (peak) plasma concentration after drug administration (tmax). The primary PK parameters were AUC(0-inf) and Cmax. The individual PK parameters of compound A were presented in the data listings by formulation (tablet or capsule) and dose (2.5, 10, or 25 mg). The PK parameters except tmax and tlag were summarized by formulation and dose using descriptive statistics: number of subjects, mean, SD, coefficient of variation, geometric mean, median, minimum, and maximum. The parameters tmax and tlag were summarized by formulation and dose using the following descriptive statistics: median, minimum, maximum, and the 90% confidence interval (CI) of the median point estimate. The natural log (In)-transformed PK parameters for compound A (AUC(0-inf), Cmax, AUC(0-8), AUC(0-72), and AUC(0-t)) were compared separately by dose with a mixed-effects model with sequence, treatment period, and formulation as fixed effects and subjects nested within sequence as a random effect. […]

[2] = system: healthy adult subjects; experiment: 002 Study: PK-PD exploratory analysis of next-day residual sleepiness; assay type: in vivo, human; details: 9-10 hours postdose (1-2 hours after morning awakening), Day 2
Description: For the PK-PD exploratory analysis of next-day residual sleepiness, population PK model-derived compound A plasma concentrations at 8, 9, and 10 hours following administration on the evening of Day 1 were related to change from baseline on the KSS, PVT Lapses, and DSST at 15 minutes, 1 hour, and 2 hours after waketime on the morning of Day 2, respectively. […] Concentrations below 30 ng/mL (which occur at doses below 25 mg) after 9-10 hours postdose, which correspond to the 1-2 hours after morning awakening, were associated with minimal or no change from baseline on the KSS, PVT Lapses, or DSST.

[3] = across all dose levels (2.5, 10, 25 mg)
[4] = po, 2.5 mg, single oral 2.5 mg Capsule, healthy adults
[5] = po, 2.5 mg, single oral 2.5 mg Tablet, healthy adults
[6] = po, 10 mg, single oral 10 mg Capsule, healthy adults
[7] = po, 10 mg, single oral 10 mg Tablet, healthy adults
[8] = po, 25 mg, single oral 25 mg Capsule, healthy adults
[9] = po, 25 mg, single oral 25 mg Tablet, healthy adults

Cc1ncc(OC[C@@]2(c3cccc(F)c3)C[C@H]2C(=O)Nc2ccc(F)cn2)c(C)n1 [Compound A, (1R,2 S)-2-(((2,4-dimethylpyrimidin-5-yl)oxy)methyl)-2-(3-fluorophenyl)-N-(5-fluoropyridin-2-yl) cyclopropanecarboxamide]
Differences between formulations (tablet vs capsule) in AUC(0-8), AUC(0-72), AUC(0-t), AUC(0-inf) [1, 3]: less than 13% | Differences between tablet and capsule formulations in Cmax [1, 3]: less than 16% | absorption lag ([1]; either formulation, any dose level): no observed absorption lag | Tmax ([1]; oral, tablet and capsule, across all dose levels, read-out: median tmax): 1 to 1.5 h | concentration at 8 h ([1]; po, 2.5 mg, single oral 2.5 mg Capsule): 1.84 ng/mL | concentration at 8 h ([1]; po, 2.5 mg, single oral 2.5 mg Tablet): 1.75 ng/mL | AUC(0-t) ([1]; po, 2.5 mg, single oral 2.5 mg Capsule, healthy adults, read-out: AUC(0-8) Mean(SD)): 45.5 ng·h/mL | AUC(0-t) ([1]; po, 2.5 mg, single oral 2.5 mg Capsule, healthy adults, read-out: AUC(0-72) Mean(SD)): 85.1 ng·h/mL | AUC(0-inf) [1, 4]: 103 ng·h/mL | AUC(0-t) ([1]; po, 2.5 mg, single oral 2.5 mg Capsule, healthy adults, read-out: AUC(0-t) Mean(SD)): 94.9 ng·h/mL | Cmax [1, 4]: 15.9 ng/mL | half-life [1, 4]: 36.8 h | Tmax ([1]; po, 2.5 mg, single oral 2.5 mg Capsule, healthy adults, read-out: tmax (median)): 1 h | AUC(0-t) ([1]; po, 2.5 mg, single oral 2.5 mg Tablet, healthy adults, read-out: AUC(0-8) Mean(SD)): 47.1 ng·h/mL | AUC(0-t) ([1]; po, 2.5 mg, single oral 2.5 mg Tablet, healthy adults, read-out: AUC(0-72) Mean(SD)): 84.3 ng·h/mL | AUC(0-inf) [1, 5]: 101 ng·h/mL | AUC(0-t) ([1]; po, 2.5 mg, single oral 2.5 mg Tablet, healthy adults, read-out: AUC(0-t) Mean(SD)): 93.2 ng·h/mL | Cmax [1, 5]: 18 ng/mL | half-life [1, 5]: 35.1 h | Tmax ([1]; po, 2.5 mg, single oral 2.5 mg Tablet, healthy adults, read-out: tmax (median)): 1 h | concentration at 8 h ([1]; po, 10 mg, single oral 10 mg Capsule): 8.9 ng/mL | concentration at 8 h ([1]; po, 10 mg, single oral 10 mg Tablet): 7.44 ng/mL | AUC(0-t) ([1]; po, 10 mg, single oral 10 mg Capsule, healthy adults, read-out: AUC(0-8) Mean(SD)): 164 ng·h/mL | AUC(0-t) ([1]; po, 10 mg, single oral 10 mg Capsule, healthy adults, read-out: AUC(0-72) Mean(SD)): 372 ng·h/mL | AUC(0-inf) [1, 6]: 531 ng·h/mL | AUC(0-t) ([1]; po, 10 mg, single oral 10 mg Capsule, healthy adults, read-out: AUC(0-t) Mean(SD)): 511 ng·h/mL | Cmax [1, 6]: 49 ng/mL | half-life [1, 6]: 57 h | Tmax ([1]; po, 10 mg, single oral 10 mg Capsule, healthy adults, read-out: tmax (median)): 1.5 h | AUC(0-t) ([1]; po, 10 mg, single oral 10 mg Tablet, healthy adults, read-out: AUC(0-8) Mean(SD)): 178 ng·h/mL | AUC(0-t) ([1]; po, 10 mg, single oral 10 mg Tablet, healthy adults, read-out: AUC(0-72) Mean(SD)): 341 ng·h/mL | AUC(0-inf) [1, 7]: 472 ng·h/mL | AUC(0-t) ([1]; po, 10 mg, single oral 10 mg Tablet, healthy adults, read-out: AUC(0-t) Mean(SD)): 455 ng·h/mL | Cmax [1, 7]: 58.1 ng/mL | half-life [1, 7]: 59.5 h | Tmax ([1]; po, 10 mg, single oral 10 mg Tablet, healthy adults, read-out: tmax (median)): 1 h | concentration at 8 h ([1]; po, 25 mg, single oral 25 mg Capsule): 19.9 ng/mL | concentration at 8 h ([1]; po, 25 mg, single oral 25 mg Tablet): 17.6 ng/mL | AUC(0-t) ([1]; po, 25 mg, single oral 25 mg Capsule, healthy adults, read-out: AUC(0-8) Mean(SD)): 358 ng·h/mL | AUC(0-t) ([1]; po, 25 mg, single oral 25 mg Capsule, healthy adults, read-out: AUC(0-72) Mean(SD)): 803 ng·h/mL | AUC(0-inf) [1, 8]: 1110 ng·h/mL | AUC(0-t) ([1]; po, 25 mg, single oral 25 mg Capsule, healthy adults, read-out: AUC(0-t) Mean(SD)): 1080 ng·h/mL | Cmax [1, 8]: 105 ng/mL | half-life [1, 8]: 57.4 h | Tmax ([1]; po, 25 mg, single oral 25 mg Capsule, healthy adults, read-out: tmax (median)): 1.5 h | AUC(0-t) ([1]; po, 25 mg, single oral 25 mg Tablet, healthy adults, read-out: AUC(0-8) Mean(SD)): 386 ng·h/mL | AUC(0-t) ([1]; po, 25 mg, single oral 25 mg Tablet, healthy adults, read-out: AUC(0-72) Mean(SD)): 795 ng·h/mL | AUC(0-inf) [1, 9]: 1100 ng·h/mL | AUC(0-t) ([1]; po, 25 mg, single oral 25 mg Tablet, healthy adults, read-out: AUC(0-t) Mean(SD)): 1070 ng·h/mL | Cmax [1, 9]: 120 ng/mL | half-life [1, 9]: 57.6 h | Tmax ([1]; po, 25 mg, single oral 25 mg Tablet, healthy adults, read-out: tmax (median)): 1 h | plasma concentration associated with minimal or no change from baseline on KSS, PVT Lapses, DSST [2]: below 30 ng/mL
